Values of other authors in patent US12661351B2, “Stable liquid compositions of posaconazole” (INVENGENE PRIVATE LIMITED, priority 2020, dated 2026).
Where two headings read alike, the source gives them in different places.

## CC[C@@H]([C@H](C)O)n1ncn(-c2ccc(N3CCN(c4ccc(OC[C@@H]5CO[C@@](Cn6cncn6)(c6ccc(F)cc6F)C5)cc4)CC3)cc2)c1=O [Posaconazole]
Aqueous solutions at pH>4
  Solubility: less than 1 mcg/ml
Strong acidic (aqueous) solutions of pH 1 or lower
  Solubility: about 790 mcg/ml
